Results as given in US20130090329A1, “Methods and Compositions for the Treatment of Psychotic Disorders Through the Identification of the Olanzapine Poor Response Predictor Genetic Signature” (SUREGENE, LLC, priority 2011, published 2013).
Marks after values point to notes of the source that are not given here.

Assays:
[1] = test system: patients suffering from schizophrenia and related disorders; test: CATIE study: percent change in total PANSS from baseline to LOCF, segmented by OPRP genetic signature status; type: in vivo, human; settings: for Effect size (mean difference / standard deviation): CATIE
Source text: Genotype and phenotype data for the CATIE trial were recently made available to qualified researchers through the NIMH Center for Collaborative Genetic Studies on Mental Disorders. The sample consisted of a total of 738 patients. For the present study, the inventors assigned OPRP status to 628 subjects, including 411 subjects of self-reported European ancestry and 217 subjects of self-reported African ancestry. Further details on the patient population are described in the study by Sullivan and coworkers (Sullivan et al., 2008). The CATIE SNP genotype data evaluated included a total of 492,900 SNPs located throughout the genome.
The design of the CATIE study has been described in detail by others (Lieberman et al., 2005; Stroup et al., 2003). […] Subjects that failed Phase I treatment with the typical antipsychotic perphenazine were treated differently than those subjects that failed phase I treatment with an atypical antipsychotic. Instead of entering into Phase II of the trial, subjects who switched from perphenazine entered Phase IB. […] Subjects who failed Phase IB then entered Phase II.
(§1) A total of 738 subjects consented to provide DNA for genetic study. […] Only retrospective genetic analyses, judged to be exempt from human studies requirements by an IRB, were conducted in the current study. For the genetic analyses presented herein, the inventors combined and evaluated drug response data for both Phase I and Phase IB of the CATIE study. All tested patients were studied using well established clinical endpoints comparing baseline, intermediate, and last observation carried forward (LOCF) for the PANSS scores using CATIE data. LOCF analysis is a commonly used clinical endpoint for clinical trials for neuropsychiatric drugs, with particular changes in PANSS scores being used to indicate clinically significant response (Leucht et al., 2009).
Using the clinical data from the CAIE trial, the inventors derived several different metrics used for quantifying response in clinical trials of antipsychotic medications. The most commonly used psychometric instrument is the Positive and Negative Syndrome Scale (PANSS), a 30-item semi-quantitative instrument scored by clinical professionals (Kay et al., 1987). The greater the decrease in PANSS score, the better the clinical response. The most direct measure of clinical response is absolute change in PANSS score. In addition to absolute change, the improvement is often reported as a percentage change from baseline PANSS score.
To examine the relationship of genotypes to drug response the inventors used the publically available PLINK software (Purcell et al., 2007; available on the world wide web at pngu.mgh.harvard.edu/purcell/plink/) and Helix tree (Version 6.4.1; Golden Helix, Bozeman, Mont.). The inventors used Last observation Carry Forward (LOCF) delta PANSS values as a measure of response to antipsychotic treatment. […] The inventors refined the test further by conducting association analysis on using only those subjects that comprised the TT genotype of rs11960832.
As mentioned previously, the mean change in absolute or percent PANSS provides an important measure of efficacy in patients undergoing antipsychotic treatments. Indeed, many pivotal trials in the psychosis field used absolute and/or percentage change in PANSS Score as the primary endpoint (Leucht et al., 2009).

[2] = test system: patients suffering from schizophrenia and related disorders; test: CATIE study: categorical responders (change in total PANSS ≦−10%, LOCF) by OPRP status; type: in vivo, human; settings: for Responders: change in total PANSS ≦−10%
Procedure: A total of 738 subjects consented to provide DNA for genetic study. Details regarding SNP genotyping and quality control have been recently published (Sullivan et al., 2008). Only retrospective genetic analyses, judged to be exempt from human studies requirements by an IRB, were conducted in the current study. For the genetic analyses presented herein, the inventors combined and evaluated drug response data for both Phase I and Phase IB of the CATIE study. All tested patients were studied using well established clinical endpoints comparing baseline, intermediate, and last observation carried forward (LOCF) for the PANSS scores using CATIE data. LOCF analysis is a commonly used clinical endpoint for clinical trials for neuropsychiatric drugs, with particular changes in PANSS scores being used to indicate clinically significant response (Leucht et al., 2009). […] As described above CATIE patients were studied using well established clinical endpoints comparing baseline, intermediate, and last observation carried forward (LOCF) for the PANSS scores.

[3] = test system: patients suffering from schizophrenia and related disorders; test: CATIE study: worsening of symptoms (LOCF delta PANSS ≧0%) by OPRP status; type: in vivo, human; settings: for Worsening: delta PANSS ≧0%
Procedure: as §1
The inventors also examined the impact of the OPRP status on whether patients' symptoms actually got worse when treated with olanzapine. This is an important safety consideration for antipsychotic drugs response, and failure of a drug to display the desired clinical response on a specific subset of patients could impact the drug label, being contraindicated for a particular subset of patients (see Example 5: “Risk Management Involving the OPRP Genetic Test). […]

psychopathology (PANSS) [4] = settings: meta-analysis, population not segmented by OPRP; negative = greater reduction in PANSS; cited from earlier work
psychopathology = settings: meta-analysis, Davis et al. (2003); cited from earlier work
psychopathology (PANSS) [5] = settings: weighted mean difference in PANSS score (absolute); negative = olanzapine superior; cited from earlier work
[6] = among antipsychotic medications; cited from earlier work
[7] = OPRP Negative subjects, CATIE Phase I and IB, more negative = greater improvement
[8] = OPRP Positive subjects, CATIE Phase I and IB, more negative = greater improvement
[9] = comparator = OPRP positive subjects treated with the labelled drug, positive = poorer response to olanzapine
[10] = olanzapine OPRP positive versus labelled drug OPRP positive
[11] = Caucasian patients, OPRP Negative, LOCF
[12] = Caucasian patients, OPRP Positive, LOCF

Compound | DELTA PANSS % (mean change in PANSS score from baseline to LOCF) [1, 7] | DELTA PANSS % (mean change in PANSS score from baseline to LOCF) [1, 8] | Mean difference in delta PANSS: olanzapine-treated OPRP positive group minus comparator group [1, 9] | Effect size (mean difference / standard deviation) [1, 10] | Number of individuals with change in total PANSS ≦−10% (responders) ([2]; OPRP Negative) | Number of individuals with change in total PANSS ≧−10% (non-responders) ([2]; OPRP Negative) | Responders ([2]; OPRP Negative) | Number of individuals with change in total PANSS ≦−10% (responders) ([2]; OPRP Positive) | Number of individuals with change in total PANSS ≧−10% (non-responders) ([2]; OPRP Positive) | Responders ([2]; OPRP Positive) | Number of individuals with delta PANSS ≦0% (non-worsening) ([3]; OPRP Negative, LOCF) | Number of individuals with delta PANSS ≧0% (worsening symptoms) ([3]; OPRP Negative, LOCF) | Worsening ([3]; OPRP Negative, LOCF) | Number of individuals with delta PANSS ≦0% (non-worsening) ([3]; OPRP Positive, LOCF) | Number of individuals with delta PANSS ≧0% (worsening symptoms) ([3]; OPRP Positive, LOCF) | Worsening ([3]; OPRP Positive, LOCF) | Effect Size vs. Placebo (psychopathology (PANSS) [4]) | Mean difference between olanzapine and labelled atypical antipsychotic, Meta-analysis (psychopathology (PANSS) [5]) | Incidence of metabolic side-effects [6] | further results
OCCN1CCN(CCCN2c3ccccc3Sc3ccc(Cl)cc32)CC1 [Perphenazine] | −4.2^+++ % | −7.7^ % | 12 | 0.7 | 39 | 71 | 35%^+ | 5 | 7 | 42%^^ | 65 | 45 | 41%^+++ | 9 | 3 | 25%^ | – | – | – | –
O=C1Cc2cc(CCN3CCN(c4nsc5ccccc45)CC3)c(Cl)cc2N1 [Ziprasidone] | −1.5^++++ % | −0.5% | 4.8 | 0.2^b | 16 | 53 | 23%^++++ | 2 | 9 | 18% | 35 | 34 | 49%^++++ | 7 | 4 | 36% | −0.48 | −8.3 | – | Mean difference between olanzapine and labelled atypical antipsychotic, CATIE OPRP− ([1]; OPRP negative subjects, delta PANSS, negative = olanzapine superior): −10.1; Mean difference between olanzapine and labelled atypical antipsychotic, CATIE unsegemented ([1]; delta PANSS, negative = olanzapine superior): −4.9; Effect size (mean difference / standard deviation) ([1]; olanzapine OPRP positive versus labelled drug OPRP positive, listed as ziprasidone): 0.2; Effect Size vs. FGA (first generation antipsychotics) (psychopathology): −0.04
Cc1nc2n(c(=O)c1CCN1CCC(c3noc4cc(F)ccc34)CC1)CCCC2 [Risperidone] | – | – | – | – | 55 | 91 | 38%^+ | 7 | 12 | 35%^ | 91 | 55 | 38%^+++ | 13 | 7 | 35%^ | −0.59 | −1.9 | – | –
Cc1cc2c(s1)Nc1ccccc1N=C2N1CCN(C)CC1 [Olanzapine] | −11.6% | 4.3% | – | – | 73 | 66 | 53%* | 1 | 25 | 4% | 113 | 26 | 19%* | 8 | 18 | 69% | – | – | greatest incidence of metabolic side-effects | Effect size, olanzapine-treated OPRP positive patients compared to various other OPRP-drug combinations ([1]; CATIE study, range over comparisons): 0.2 to 1.0; Mean difference in delta PANSS: olanzapine-treated OPRP positive group minus comparator group ([1]; comparator = olanzapine-treated OPRP negative subjects): 15.9; Effect size (mean difference / standard deviation) ([1]; olanzapine OPRP positive versus olanzapine OPRP negative): 1.0^a; Effect size (mean difference / standard deviation) ([1]; olanzapine OPRP positive versus olanzapine OPRP negative, listed as olanzapine): 1.0
CN1CCN(C2=Nc3cc(Cl)ccc3Nc3ccccc32)CC1 [Clozapine] | – | – | – | – | – | – | – | – | – | – | – | – | – | – | – | – | – | – | greatest incidence of metabolic side-effects | DELTA PANSS % (mean change in PANSS score from baseline to LOCF) ([1]; Caucasian subjects, OPRP Negative): −13.1%; DELTA PANSS % (mean change in PANSS score from baseline to LOCF) ([1]; Caucasian subjects, OPRP Positive): 28%; Number of individuals with delta PANSS ≦0% (non-worsening) [3, 11]: 25; Number of individuals with delta PANSS ≧0% (worsening symptoms) [3, 11]: 9; Worsening ([3]; Caucasian patients, OPRP Negative): 26%*; Number of individuals with delta PANSS ≦0% (non-worsening) [3, 12]: 0; Number of individuals with delta PANSS ≧0% (worsening symptoms) [3, 12]: 2; Worsening ([3]; Caucasian patients, OPRP Positive): 100%
